Data from the supplement of paper PMC8882468.
± gives the standard deviation of the averaged measurements.

Each compound was assayed on HCI-008 (organoid from a HER2-enriched breast cancer xenograft) (assay: CTG-3D luminescence at 96 h relative to day-0 seeding control (ratio to day 0); higher = more growth / less cytotoxicity; PDxO 3D drug screen, 96 h, CTG-3D normalised to day-0 seeding control.). Conditions: 12.5 pM; days in culture: 228.

Structure (SMILES) | CTG-3D luminescence at 96 h
O=C(O)C1(C(=O)O)CCC1.[NH2-].[NH2-].[Pt+2] [carboplatin] | 1.58 ± 0.47
COc1cc2c(Oc3ccc4[nH]c(C)cc4c3F)ncnc2cc1OCCCN1CCCC1 [cediranib] | 1.83 ± 0.8
C[C@@H]1COCCN1c1cc(C2([S@](C)(=N)=O)CC2)nc(-c2cc[nH]c3nccc2-3)n1 [ceralasertib] | 1.99 ± 0.17
Cc1cc(Nc2ncc(Cl)c(Nc3ccccc3S(=O)(=O)C(C)C)n2)c(OC(C)C)cc1C1CCNCC1 [ceritinib] | 1.69 ± 0.45
O=C(c1ccc(F)c(F)c1Nc1ccc(I)cc1F)N1CC(O)([C@@H]2CCCCN2)C1 [cobimetinib] | 1.65 ± 0.23
C[C@H](NC(=O)CCC(F)(F)F)C(=O)N[C@@H]1C(=O)N(CCO)c2ncccc2-c2ccccc21 [crenigacestat] | 1.8 ± 0.26
COc1cccc2c1C(=O)c1c(O)c3c(c(O)c1C2=O)C[C@@](O)(C(=O)CO)C[C@@H]3O[C@H]1C[C@H](N)[C@H](O)[C@H](C)O1 [doxorubicin] | 1.33 ± 0.12
C[C@]12CC[C@@H]3c4ccc(O)cc4C[C@@H](CCCCCCCCC[S+]([O-])CCCC(F)(F)C(F)(F)F)[C@H]3[C@@H]1CC[C@@H]2O (some centres not stated) [fulvestrant] | 1.6 ± 0.34
Nc1ccn([C@@H]2O[C@H](CO)[C@@H](O)C2(F)F)c(=O)n1 [gemcitabine] | 1.403 ± 0.0076

Same assay, conditions: 12.5 pM; days in culture: 244

Structure (SMILES) | CTG-3D luminescence at 96 h
O=C(O)C1(C(=O)O)CCC1.[NH2-].[NH2-].[Pt+2] [carboplatin] | 1.2
COc1cc2c(Oc3ccc4[nH]c(C)cc4c3F)ncnc2cc1OCCCN1CCCC1 [cediranib] | 1.25
C[C@@H]1COCCN1c1cc(C2([S@](C)(=N)=O)CC2)nc(-c2cc[nH]c3nccc2-3)n1 [ceralasertib] | 1.32
Cc1cc(Nc2ncc(Cl)c(Nc3ccccc3S(=O)(=O)C(C)C)n2)c(OC(C)C)cc1C1CCNCC1 [ceritinib] | 1.42
O=C(c1ccc(F)c(F)c1Nc1ccc(I)cc1F)N1CC(O)([C@@H]2CCCCN2)C1 [cobimetinib] | 1.27
C[C@H](NC(=O)CCC(F)(F)F)C(=O)N[C@@H]1C(=O)N(CCO)c2ncccc2-c2ccccc21 [crenigacestat] | 1.23
COc1cccc2c1C(=O)c1c(O)c3c(c(O)c1C2=O)C[C@@](O)(C(=O)CO)C[C@@H]3O[C@H]1C[C@H](N)[C@H](O)[C@H](C)O1 [doxorubicin] | 1.19
C[C@]12CC[C@@H]3c4ccc(O)cc4C[C@@H](CCCCCCCCC[S+]([O-])CCCC(F)(F)C(F)(F)F)[C@H]3[C@@H]1CC[C@@H]2O (some centres not stated) [fulvestrant] | 1.4
Nc1ccn([C@@H]2O[C@H](CO)[C@@H](O)C2(F)F)c(=O)n1 [gemcitabine] | 1.25

Same assay, conditions: 0.00025 µM; days in culture: 228

Structure (SMILES) | CTG-3D luminescence at 96 h
O=C(O)C1(C(=O)O)CCC1.[NH2-].[NH2-].[Pt+2] [carboplatin] | 2.29 ± 0.44
COc1cc2c(Oc3ccc4[nH]c(C)cc4c3F)ncnc2cc1OCCCN1CCCC1 [cediranib] | 1.99 ± 0.16
C[C@@H]1COCCN1c1cc(C2([S@](C)(=N)=O)CC2)nc(-c2cc[nH]c3nccc2-3)n1 [ceralasertib] | 1.95 ± 0.15
Cc1cc(Nc2ncc(Cl)c(Nc3ccccc3S(=O)(=O)C(C)C)n2)c(OC(C)C)cc1C1CCNCC1 [ceritinib] | 1.81 ± 0.11
O=C(c1ccc(F)c(F)c1Nc1ccc(I)cc1F)N1CC(O)([C@@H]2CCCCN2)C1 [cobimetinib] | 1.7 ± 0.1
C[C@H](NC(=O)CCC(F)(F)F)C(=O)N[C@@H]1C(=O)N(CCO)c2ncccc2-c2ccccc21 [crenigacestat] | 1.66 ± 0.04
COc1cccc2c1C(=O)c1c(O)c3c(c(O)c1C2=O)C[C@@](O)(C(=O)CO)C[C@@H]3O[C@H]1C[C@H](N)[C@H](O)[C@H](C)O1 [doxorubicin] | 1.91 ± 0.19
C[C@]12CC[C@@H]3c4ccc(O)cc4C[C@@H](CCCCCCCCC[S+]([O-])CCCC(F)(F)C(F)(F)F)[C@H]3[C@@H]1CC[C@@H]2O (some centres not stated) [fulvestrant] | 1.76 ± 0.31
Nc1ccn([C@@H]2O[C@H](CO)[C@@H](O)C2(F)F)c(=O)n1 [gemcitabine] | 1.8 ± 0.41

Same assay, conditions: 0.00025 µM; days in culture: 244

Structure (SMILES) | CTG-3D luminescence at 96 h
O=C(O)C1(C(=O)O)CCC1.[NH2-].[NH2-].[Pt+2] [carboplatin] | 1.8
COc1cc2c(Oc3ccc4[nH]c(C)cc4c3F)ncnc2cc1OCCCN1CCCC1 [cediranib] | 1.7
C[C@@H]1COCCN1c1cc(C2([S@](C)(=N)=O)CC2)nc(-c2cc[nH]c3nccc2-3)n1 [ceralasertib] | 2.13
Cc1cc(Nc2ncc(Cl)c(Nc3ccccc3S(=O)(=O)C(C)C)n2)c(OC(C)C)cc1C1CCNCC1 [ceritinib] | 1.74
O=C(c1ccc(F)c(F)c1Nc1ccc(I)cc1F)N1CC(O)([C@@H]2CCCCN2)C1 [cobimetinib] | 1.9
C[C@H](NC(=O)CCC(F)(F)F)C(=O)N[C@@H]1C(=O)N(CCO)c2ncccc2-c2ccccc21 [crenigacestat] | 1.65
COc1cccc2c1C(=O)c1c(O)c3c(c(O)c1C2=O)C[C@@](O)(C(=O)CO)C[C@@H]3O[C@H]1C[C@H](N)[C@H](O)[C@H](C)O1 [doxorubicin] | 1.9
C[C@]12CC[C@@H]3c4ccc(O)cc4C[C@@H](CCCCCCCCC[S+]([O-])CCCC(F)(F)C(F)(F)F)[C@H]3[C@@H]1CC[C@@H]2O (some centres not stated) [fulvestrant] | 1.74
Nc1ccn([C@@H]2O[C@H](CO)[C@@H](O)C2(F)F)c(=O)n1 [gemcitabine] | 1.74

Same assay, conditions: 0.005 µM; days in culture: 228

Structure (SMILES) | CTG-3D luminescence at 96 h
O=C(O)C1(C(=O)O)CCC1.[NH2-].[NH2-].[Pt+2] [carboplatin] | 1.79 ± 0.38
COc1cc2c(Oc3ccc4[nH]c(C)cc4c3F)ncnc2cc1OCCCN1CCCC1 [cediranib] | 1.53 ± 0.43
C[C@@H]1COCCN1c1cc(C2([S@](C)(=N)=O)CC2)nc(-c2cc[nH]c3nccc2-3)n1 [ceralasertib] | 1.41 ± 0.34
Cc1cc(Nc2ncc(Cl)c(Nc3ccccc3S(=O)(=O)C(C)C)n2)c(OC(C)C)cc1C1CCNCC1 [ceritinib] | 1.55 ± 0.49
O=C(c1ccc(F)c(F)c1Nc1ccc(I)cc1F)N1CC(O)([C@@H]2CCCCN2)C1 [cobimetinib] | 1.33 ± 0.13
C[C@H](NC(=O)CCC(F)(F)F)C(=O)N[C@@H]1C(=O)N(CCO)c2ncccc2-c2ccccc21 [crenigacestat] | 1.56 ± 0.66
COc1cccc2c1C(=O)c1c(O)c3c(c(O)c1C2=O)C[C@@](O)(C(=O)CO)C[C@@H]3O[C@H]1C[C@H](N)[C@H](O)[C@H](C)O1 [doxorubicin] | 1.48 ± 0.13
C[C@]12CC[C@@H]3c4ccc(O)cc4C[C@@H](CCCCCCCCC[S+]([O-])CCCC(F)(F)C(F)(F)F)[C@H]3[C@@H]1CC[C@@H]2O (some centres not stated) [fulvestrant] | 1.34 ± 0.093
Nc1ccn([C@@H]2O[C@H](CO)[C@@H](O)C2(F)F)c(=O)n1 [gemcitabine] | 1.3404 ± 0.0013

Same assay, conditions: 0.005 µM; days in culture: 244

Structure (SMILES) | CTG-3D luminescence at 96 h
O=C(O)C1(C(=O)O)CCC1.[NH2-].[NH2-].[Pt+2] [carboplatin] | 1.7
COc1cc2c(Oc3ccc4[nH]c(C)cc4c3F)ncnc2cc1OCCCN1CCCC1 [cediranib] | 1.65
C[C@@H]1COCCN1c1cc(C2([S@](C)(=N)=O)CC2)nc(-c2cc[nH]c3nccc2-3)n1 [ceralasertib] | 2.05
Cc1cc(Nc2ncc(Cl)c(Nc3ccccc3S(=O)(=O)C(C)C)n2)c(OC(C)C)cc1C1CCNCC1 [ceritinib] | 1.85
O=C(c1ccc(F)c(F)c1Nc1ccc(I)cc1F)N1CC(O)([C@@H]2CCCCN2)C1 [cobimetinib] | 1.87
C[C@H](NC(=O)CCC(F)(F)F)C(=O)N[C@@H]1C(=O)N(CCO)c2ncccc2-c2ccccc21 [crenigacestat] | 1.55
COc1cccc2c1C(=O)c1c(O)c3c(c(O)c1C2=O)C[C@@](O)(C(=O)CO)C[C@@H]3O[C@H]1C[C@H](N)[C@H](O)[C@H](C)O1 [doxorubicin] | 1.52
C[C@]12CC[C@@H]3c4ccc(O)cc4C[C@@H](CCCCCCCCC[S+]([O-])CCCC(F)(F)C(F)(F)F)[C@H]3[C@@H]1CC[C@@H]2O (some centres not stated) [fulvestrant] | 1.94
Nc1ccn([C@@H]2O[C@H](CO)[C@@H](O)C2(F)F)c(=O)n1 [gemcitabine] | 1.74

Same assay, conditions: 0.1 µM; days in culture: 228

Structure (SMILES) | CTG-3D luminescence at 96 h
O=C(O)C1(C(=O)O)CCC1.[NH2-].[NH2-].[Pt+2] [carboplatin] | 2.05 ± 0.096
COc1cc2c(Oc3ccc4[nH]c(C)cc4c3F)ncnc2cc1OCCCN1CCCC1 [cediranib] | 2.02 ± 0.13
C[C@@H]1COCCN1c1cc(C2([S@](C)(=N)=O)CC2)nc(-c2cc[nH]c3nccc2-3)n1 [ceralasertib] | 1.81 ± 0.3
Cc1cc(Nc2ncc(Cl)c(Nc3ccccc3S(=O)(=O)C(C)C)n2)c(OC(C)C)cc1C1CCNCC1 [ceritinib] | 1.3 ± 0.59
O=C(c1ccc(F)c(F)c1Nc1ccc(I)cc1F)N1CC(O)([C@@H]2CCCCN2)C1 [cobimetinib] | 1.14 ± 0.47
C[C@H](NC(=O)CCC(F)(F)F)C(=O)N[C@@H]1C(=O)N(CCO)c2ncccc2-c2ccccc21 [crenigacestat] | 1.47 ± 0.48
COc1cccc2c1C(=O)c1c(O)c3c(c(O)c1C2=O)C[C@@](O)(C(=O)CO)C[C@@H]3O[C@H]1C[C@H](N)[C@H](O)[C@H](C)O1 [doxorubicin] | 1.51 ± 0.31
C[C@]12CC[C@@H]3c4ccc(O)cc4C[C@@H](CCCCCCCCC[S+]([O-])CCCC(F)(F)C(F)(F)F)[C@H]3[C@@H]1CC[C@@H]2O (some centres not stated) [fulvestrant] | 1.68 ± 0.074
Nc1ccn([C@@H]2O[C@H](CO)[C@@H](O)C2(F)F)c(=O)n1 [gemcitabine] | 0.6483 ± 0.0063

Same assay, conditions: 0.1 µM; days in culture: 244

Structure (SMILES) | CTG-3D luminescence at 96 h
O=C(O)C1(C(=O)O)CCC1.[NH2-].[NH2-].[Pt+2] [carboplatin] | 2.09
COc1cc2c(Oc3ccc4[nH]c(C)cc4c3F)ncnc2cc1OCCCN1CCCC1 [cediranib] | 2.04
C[C@@H]1COCCN1c1cc(C2([S@](C)(=N)=O)CC2)nc(-c2cc[nH]c3nccc2-3)n1 [ceralasertib] | 2.01
Cc1cc(Nc2ncc(Cl)c(Nc3ccccc3S(=O)(=O)C(C)C)n2)c(OC(C)C)cc1C1CCNCC1 [ceritinib] | 1.55
O=C(c1ccc(F)c(F)c1Nc1ccc(I)cc1F)N1CC(O)([C@@H]2CCCCN2)C1 [cobimetinib] | 1.57
C[C@H](NC(=O)CCC(F)(F)F)C(=O)N[C@@H]1C(=O)N(CCO)c2ncccc2-c2ccccc21 [crenigacestat] | 1.79
COc1cccc2c1C(=O)c1c(O)c3c(c(O)c1C2=O)C[C@@](O)(C(=O)CO)C[C@@H]3O[C@H]1C[C@H](N)[C@H](O)[C@H](C)O1 [doxorubicin] | 2.09
C[C@]12CC[C@@H]3c4ccc(O)cc4C[C@@H](CCCCCCCCC[S+]([O-])CCCC(F)(F)C(F)(F)F)[C@H]3[C@@H]1CC[C@@H]2O (some centres not stated) [fulvestrant] | 2.15
Nc1ccn([C@@H]2O[C@H](CO)[C@@H](O)C2(F)F)c(=O)n1 [gemcitabine] | 1.26
